{
  "source": "PubChem BioAssay AID224",
  "about": "(DTP/NCI, 2004)",
  "tested_on": "P335 leukemia ip, BDF1 mice, survival T/C %",
  "assay": "NCI In Vivo Anticancer Drug Screen. Data for tumor model P335 Leukemia (intraperitoneal) in B6D2F1 (BDF1) mice",
  "conditions": "endpoint: mean survival time, higher = longer survival",
  "procedure": "The antitumor activity of compounds was measured in mice bearing transplantable tumors. Survival or tumor size were measured and the results are expressed as the measurement made in the treated group (T) divided by the measurement made in the vehicle treated control group (C). The tumor model used in this assay is P335 Leukemia (intraperitoneal) in B6D2F1 (BDF1) mice",
  "note": "Where “and” joins values, the source holds several entries; their conditions need not be identical. Equal entries are not always repeated. Inconclusive results and toxic doses are left out.",
  "data": [
    {"smiles": "O=c1cn[nH]c(=O)[nH]1", "values": [
      {"measurement": "T/C", "setting": "dose: 187.5 mg/kg/injection, schedule: Q01DX Z (ip), vehicle: carboxymethylcellulose (CMC)", "result": "88 % of control"},
      {"measurement": "T/C", "setting": "dose: 375.0 mg/kg/injection, schedule: Q01DX Z (ip), vehicle: carboxymethylcellulose (CMC)", "result": "88 % of control"},
      {"measurement": "T/C", "setting": "dose: 750.0 mg/kg/injection, schedule: Q01DX Z (ip), vehicle: carboxymethylcellulose (CMC)", "result": "98 % of control"}
    ]},
    {"smiles": "N=[N+]=CC(=O)OCC(N)C(=O)O", "note": "(centres undefined)", "values": [
      {"measurement": "T/C", "setting": "dose: 1.18 mg/kg/injection, schedule: Q01DX Z (ip), vehicle: saline", "result": "101 % of control"},
      {"measurement": "T/C", "setting": "dose: 2.35 mg/kg/injection, schedule: Q01DX Z (ip), vehicle: saline", "result": "122 % of control"},
      {"measurement": "T/C", "setting": "dose: 4.69 mg/kg/injection, schedule: Q01DX Z (ip), vehicle: saline", "result": "122 % of control"},
      {"measurement": "T/C", "setting": "dose: 25.0 mg/kg/injection, schedule: Q01DX Z (ip), vehicle: saline", "result": "106 % of control"},
      {"measurement": "T/C", "setting": "dose: 50.0 mg/kg/injection, schedule: Q01DX Z (ip), vehicle: saline", "result": "94 % of control"}
    ]},
    {"smiles": "O=NN(CCCl)C(=O)NCCCl", "values": [
      {"measurement": "T/C", "setting": "dose: 16.0 mg/kg/injection, schedule: Q01DX Z (ip), vehicle: saline", "result": "95 % of control"}
    ]},
    {"smiles": "N[C@@H](Cc1ccc(N(CCCl)CCCl)cc1)C(=O)O", "values": [
      {"measurement": "T/C", "setting": "dose: 1.25 mg/kg/injection, schedule: Q01DX Z (ip), vehicle: saline", "result": "168 % of control"},
      {"measurement": "T/C", "setting": "dose: 2.5 mg/kg/injection, schedule: Q01DX Z (ip), vehicle: saline", "result": "169 % of control and 195 % of control"},
      {"measurement": "T/C", "setting": "dose: 5.0 mg/kg/injection, schedule: Q01DX Z (ip), vehicle: saline", "result": "106 % of control"}
    ]},
    {"smiles": "Nc1nc2n[nH]nc2c(=O)[nH]1", "values": [
      {"measurement": "T/C", "setting": "dose: 100.0 mg/kg/injection, schedule: Q01DX Z (ip), vehicle: other", "result": "115 % of control"}
    ]},
    {"smiles": "O=C(Nc1ccc(C2=NCCN2)cc1)c1ccc(C(=O)Nc2ccc(C3=NCCN3)cc2)c(Cl)c1", "values": [
      {"measurement": "T/C", "setting": "dose: 3.75 mg/kg/injection, schedule: Q01DX Z (ip), vehicle: water", "result": "92 % of control"},
      {"measurement": "T/C", "setting": "dose: 7.5 mg/kg/injection, schedule: Q01DX Z (ip), vehicle: water", "result": "120 % of control"},
      {"measurement": "T/C", "setting": "dose: 15.0 mg/kg/injection, schedule: Q01DX Z (ip), vehicle: water", "result": "157 % of control"},
      {"measurement": "T/C", "setting": "dose: 30.0 mg/kg/injection, schedule: Q01DX Z (ip), vehicle: water", "result": "156 % of control and 206 % of control"},
      {"measurement": "T/C", "setting": "dose: 60.0 mg/kg/injection, schedule: Q01DX Z (ip), vehicle: water", "result": "86 % of control"}
    ]},
    {"smiles": "CCOC(N)=O", "values": [
      {"measurement": "T/C", "setting": "dose: 63.0 mg/kg/injection, schedule: Q01DX Z (ip), vehicle: saline", "result": "95 % of control"},
      {"measurement": "T/C", "setting": "dose: 93.75 mg/kg/injection, schedule: Q01DX Z (ip), vehicle: saline", "result": "109 % of control"},
      {"measurement": "T/C", "setting": "dose: 125.0 mg/kg/injection, schedule: Q01DX Z (ip), vehicle: saline", "result": "108 % of control"},
      {"measurement": "T/C", "setting": "dose: 250.0 mg/kg/injection, schedule: Q01DX Z (ip), vehicle: saline", "result": "95 % of control"},
      {"measurement": "T/C", "setting": "dose: 500.0 mg/kg/injection, schedule: Q01DX Z (ip), vehicle: saline", "result": "112 % of control"}
    ]},
    {"smiles": "CC(=O)[C@H]1CC[C@H]2[C@@H]3C[C@H](C)C4=CC(=O)CC[C@]4(C)[C@H]3C(=O)C[C@]12C", "values": [
      {"measurement": "T/C", "setting": "dose: 12.5 mg/kg/injection, schedule: Q01DX Z (sc), vehicle: steriod suspending solution", "result": "120 % of control"},
      {"measurement": "T/C", "setting": "dose: 25.0 mg/kg/injection, schedule: Q01DX Z (sc), vehicle: steriod suspending solution", "result": "115 % of control"},
      {"measurement": "T/C", "setting": "dose: 50.0 mg/kg/injection, schedule: Q01DX Z (sc), vehicle: steriod suspending solution", "result": "119 % of control and 124 % of control"},
      {"measurement": "T/C", "setting": "dose: 100.0 mg/kg/injection, schedule: Q01DX Z (sc), vehicle: steriod suspending solution", "result": "107 % of control"},
      {"measurement": "T/C", "setting": "dose: 200.0 mg/kg/injection, schedule: Q01DX Z (sc), vehicle: steriod suspending solution", "result": "100 % of control"},
      {"measurement": "T/C", "setting": "dose: 400.0 mg/kg/injection, schedule: Q01DX Z (sc), vehicle: steriod suspending solution", "result": "88 % of control"}
    ]},
    {"smiles": "C[C@]12CCC(=O)C[C@H]1CC[C@@H]1[C@@H]2CC[C@@]2(C)[C@H]1CC[C@]2(C)O", "values": [
      {"measurement": "T/C", "setting": "dose: 16.0 mg/kg/injection, schedule: Q01DX Z (sc), vehicle: steriod suspending solution", "result": "106 % of control"},
      {"measurement": "T/C", "setting": "dose: 31.0 mg/kg/injection, schedule: Q01DX Z (sc), vehicle: steriod suspending solution", "result": "93 % of control"},
      {"measurement": "T/C", "setting": "dose: 62.5 mg/kg/injection, schedule: Q01DX Z (sc), vehicle: steriod suspending solution", "result": "98 % of control and 111 % of control"},
      {"measurement": "T/C", "setting": "dose: 125.0 mg/kg/injection, schedule: Q01DX Z (sc), vehicle: steriod suspending solution", "result": "111 % of control"},
      {"measurement": "T/C", "setting": "dose: 250.0 mg/kg/injection, schedule: Q01DX Z (sc), vehicle: steriod suspending solution", "result": "109 % of control"},
      {"measurement": "T/C", "setting": "dose: 500.0 mg/kg/injection, schedule: Q01DX Z (sc), vehicle: steriod suspending solution", "result": "109 % of control"},
      {"measurement": "T/C", "setting": "dose: 1000.0 mg/kg/injection, schedule: Q01DX Z (sc), vehicle: steriod suspending solution", "result": "98 % of control"}
    ]},
    {"smiles": "O=c1[nH]c(=O)n(C2CC(O)C(CO)O2)cc1Br", "note": "(centres undefined)", "values": [
      {"measurement": "T/C", "setting": "dose: 250.0 mg/kg/injection, schedule: Q01DX Z (ip), vehicle: carboxymethylcellulose (CMC)", "result": "112 % of control"},
      {"measurement": "T/C", "setting": "dose: 500.0 mg/kg/injection, schedule: Q01DX Z (ip), vehicle: carboxymethylcellulose (CMC)", "result": "115 % of control"},
      {"measurement": "T/C", "setting": "dose: 1000.0 mg/kg/injection, schedule: Q01DX Z (ip), vehicle: carboxymethylcellulose (CMC)", "result": "94 % of control and 121 % of control"}
    ]}
  ]
}
